For ten compounds, IC50 results are on record in ChEMBL document CHEMBL1144681, “Fluorination of triptolide and its analogues and their cytotoxicity” (Bioorg Med Chem Lett, 2008).

≈ marks a conversion by molar mass, not a printed value. Some results are limits rather than exact numbers.

One assay relates to HT-29. Briefly: Cytotoxicity against human HT29 cells. The format is functional, cell-based.
A further assay concerns A549. Briefly: Cytotoxicity against human A549 cells. Type of assay: functional, cell-based.

As usually defined, the IC50 is the midpoint of a concentration-inhibition curve. For `CC(C)[C@]12O[C@H]1[C@@H]1O[C@]13[C@]1(O[C@H]1C[C@H]1C4=C(CC[C@@]13C)C(=O)OC4)[C@@H]2O` [TRIPTOLIDE], the 50% inhibitory concentration (IC50) came to 0.1 ng/mL (≈ 0.000277 µM) in the assay with HT-29 and 1.3 ng/mL (≈ 0.00361 µM) with A549.
The matching figures for `CC(C)C1=C[C@]23O[C@H]2C[C@H]2C4=C(CC[C@]2(C)[C@@]32O[C@H]2[C@@H]1O)C(=O)OC4`: 17 ng/mL (≈ 0.0494 µM) and 81 ng/mL (≈ 0.235 µM).
Regarding `CC(C)[C@]12O[C@H]1[C@@H]1O[C@@]13[C@@]1(C)CCC4=C(COC4=O)[C@@H]1C[C@@H]1O[C@@]13C2=O` [TRIPTONIDE], the results for the IC50 with HT-29 and with A549 were under 0.46 ng/mL and 3.5 ng/mL (≈ 0.00977 µM), respectively.
For `CC(C)[C@]12O[C@@H]1[C@@H]1O[C@]13[C@]1(O[C@H]1C[C@H]1C4=C(CC[C@@]13C)C(=O)OC4)[C@@H]2F`, the figures for the half-inhibitory concentration (IC50) with HT-29 and in the assay on A549 were 0.06 ng/mL (≈ 0.000166 µM) and 0.42 ng/mL (≈ 0.00116 µM), respectively.
As to `CC(C)[C@]12O[C@@H]1[C@@H]1O[C@]13[C@]1(O[C@H]1C[C@H]1C4=C(CC[C@@]13C)C(=O)OC4)[C@H]2F`, the 50% inhibitory concentration (IC50) with HT-29 is 0.24 ng/mL (≈ 0.000662 µM); with A549, 3 ng/mL (≈ 0.00828 µM).
On the same counts, the results for `CC(C)C(=O)[C@H]1[C@@H](O)[C@@H]2O[C@]23[C@]12O[C@H]2C[C@H]1C2=C(CC[C@@]13C)C(=O)OC2` are 86 ng/mL (≈ 0.239 µM) and over 1 ng/mL.
On the same counts, the results for `CC(C)C1=C[C@]23O[C@H]2C[C@H]2C4=C(CC[C@]2(C)[C@@]32O[C@H]2[C@@H]1F)C(=O)OC4` are 150 ng/mL (≈ 0.433 µM) and 1500 ng/mL (≈ 4.33 µM).
For the compound `CC(C)C1=C[C@]23O[C@H]2C[C@H]2C4=C(CC[C@]2(C)[C@@]32O[C@H]2[C@H]1F)C(=O)OC4`, the results for the IC50 with HT-29 and in the assay on A549 were 210 ng/mL (≈ 0.606 µM) and 2200 ng/mL (≈ 6.35 µM), respectively.
For the compound `CC(C)[C@]1(F)O[C@H]2[C@@H]3O[C@]34[C@]3(O[C@H]3C[C@H]3C5=C(CC[C@@]34C)C(=O)OC5)[C@H]21`, the IC50 with HT-29 amounted to 72 ng/mL (≈ 0.199 µM); in the assay with A549, 997 ng/mL (≈ 2.75 µM).
The matching figures for `CC(C)[C@]12O[C@H]1[C@@H]1O[C@]13[C@]1(O[C@H]1C[C@H]1C4=C(CC[C@@]13C)C(=O)OC4)[C@H]2O` [EPITRIPTOIIDE]: 9.1 ng/mL (≈ 0.0252 µM) and 59 ng/mL (≈ 0.164 µM).
